SMILES strings stand for the structures. Structures can show the parent of a compound that is named as a salt.

A short description of the data set: in vitro. The settings on record: human, hek293t cells.
`Cc1ccccc1C(NC(=O)CCl)c1ccccc1C` [7-J04, N-[bis(2-methylphenyl)methyl]-2-chloroacetamide]: the viability – broadly, a read-out of living cells in per cent, often relative to untreated cells – at 48 h, 25 µM turned out to be 0.589%. As for `CC(Cl)C(=O)NCC(c1ccc(Cl)cc1)n1cccn1` (centres unmarked) [7-J05, 2-chloro-N-[2-(4-chlorophenyl)-2-(1H-pyrazol-1-yl)ethyl]propanamide], the figure is 100%; as for `O=C(CCl)NC1CN(c2ccc(C(F)(F)F)cc2)C1` [7-J06, 2-chloro-N-{1-[4-(trifluoromethyl)phenyl]azetidin-3-yl}acetamide], 0.892%.

As to `CC(Cl)C(=O)N1CCN(CC(F)(F)C(F)F)CC1` (centres unmarked) [7-J07, 2-chloro-1-[4-(2,2,3,3-tetrafluoropropyl)piperazin-1-yl]propan-1-one], the viability at 48 h, 25 µM worked out at 96.1%. To `O=C(CCl)NC1(c2nc(-c3ccccc3)c[nH]2)CCCC1` [7-J08, 2-chloro-N-[1-(4-phenyl-1H-imidazol-2-yl)cyclopentyl]acetamide hydrochloride] belongs 0.673%. To `CC(Cl)C(=O)NCCCc1c[nH]c2ccc(F)cc12` (centres unmarked) [7-J09, 2-chloro-N-[3-(5-fluoro-1H-indol-3-yl)propyl]propanamide] belongs 96%. To `O=C(CCl)NC1CCCN(Cc2ccccc2)C1=O` (centres unmarked) [7-J10, N-(1-benzyl-2-oxopiperidin-3-yl)-2-chloroacetamide] belongs 55.1%; to `CC(Cl)C(=O)NCC1CCN(C)c2ccccc21` (centres unmarked) [7-J11, 2-chloro-N-[(1-methyl-1,2,3,4-tetrahydroquinolin-4-yl)methyl]propanamide], 79.9%.

For `CN(C)C(=O)C(CNC(=O)CCl)c1ccccc1` (centres unmarked) [7-J12, 3-(2-chloroacetamido)-N,N-dimethyl-2-phenylpropanamide], the viability at 48 h, 25 µM stood at 1.26%. As for `Cc1ccc(NC(=O)C2(CNC(=O)C(C)Cl)CCCC2)cc1C` (centres unmarked) [7-J13, 1-[(2-chloropropanamido)methyl]-N-(3,4-dimethylphenyl)cyclopentane-1-carboxamide], the figure is 108%; as for `O=C(CCl)N(CCCO)C1CCCc2ccccc21` (centres unmarked) [7-J14, 2-chloro-N-(3-hydroxypropyl)-N-(1,2,3,4-tetrahydronaphthalen-1-yl)acetamide], 0.693%. To `COc1ccc2nnc(CNC(=O)C(C)Cl)n2n1` (centres unmarked) [7-J15, 2-chloro-N-({6-methoxy-[1,2,4]triazolo[4,3-b]pyridazin-3-yl}methyl)propanamide] belongs 90.2%.

As for `CN(C(=O)CCl)C(c1ccc(Cl)cc1)C(F)(F)F` (centres unmarked) [7-J16, 2-chloro-N-[1-(4-chlorophenyl)-2,2,2-trifluoroethyl]-N-methylacetamide], the viability at 48 h, 25 µM was 0.718%. As to `Cc1cc2ncn(CC(NC(=O)C(C)Cl)C3CC3)c2cc1C` (centres unmarked) [7-J17, 2-chloro-N-[1-cyclopropyl-2-(5,6-dimethyl-1H-1,3-benzodiazol-1-yl)ethyl]propanamide], the viability at 48 h, 25 µM worked out at 84.7%. As for `O=C(CCl)NCCc1cccc2c1Oc1ccccc1O2` [7-J18, 2-chloro-N-[2-(oxanthren-1-yl)ethyl]acetamide], the figure is 0.958%.

Regarding `CC(Cl)C(=O)NCc1cc(C(F)(F)F)cs1` (centres unmarked) [7-J19, 2-chloro-N-{[4-(trifluoromethyl)thiophen-2-yl]methyl}propanamide], the viability at 48 h, 25 µM was 97.1%. To `O=C(CCl)N(CC1=CCCOC1)Cc1ccccc1` [7-J20, N-benzyl-2-chloro-N-[(5,6-dihydro-2H-pyran-3-yl)methyl]acetamide] belongs 0.586%.

Turning to `O=C(CCl)NCc1cc(O)ccc1Cl` [7-J21, 2-chloro-N-[(2-chloro-5-hydroxyphenyl)methyl]acetamide], the viability at 48 h, 25 µM was 0.249%. As for `CC(C)C(NC(=O)CCl)c1ccc(Cl)cc1F` (centres unmarked) [7-J22, 2-chloro-N-[1-(4-chloro-2-fluorophenyl)-2-methylpropyl]acetamide], the figure is 0.584%; as for `CC(Cl)C(=O)NCc1ncn(Cc2cccc(F)c2)n1` (centres unmarked) [7-K03, 2-chloro-N-({1-[(3-fluorophenyl)methyl]-1H-1,2,4-triazol-3-yl}methyl)propanamide], 111%; as for `CC(Cl)C(=O)N1CCC(n2ncc3ccccc32)C1` (centres unmarked) [7-K04, 2-chloro-1-[3-(1H-indazol-1-yl)pyrrolidin-1-yl]propan-1-one], 92.4%. Regarding `CC(Cl)C(=O)NCc1csc(-c2ccco2)n1` (centres unmarked) [7-K05, 2-chloro-N-{[2-(furan-2-yl)-1,3-thiazol-4-yl]methyl}propanamide], the viability at 48 h, 25 µM is 90.6%. As for `CC(Cl)C(=O)N1CCN(C(=O)C(F)(F)F)C2(CCCCC2)C1` (centres unmarked) [7-K06, 2-chloro-1-[1-(2,2,2-trifluoroacetyl)-1,4-diazaspiro[5.5]undecan-4-yl]propan-1-one], the figure is 74%; as for `CC(Cl)C(=O)N1CCc2sccc2C1c1cccs1` (centres unmarked) [7-K07, 2-chloro-1-[4-(thiophen-2-yl)-4H,5H,6H,7H-thieno[3,2-c]pyridin-5-yl]propan-1-one], 87.1%. Regarding `CC(Cl)C(=O)NC1CCN(c2nnnn2C)CC1` (centres unmarked) [7-K08, 2-chloro-N-[1-(1-methyl-1H-1,2,3,4-tetrazol-5-yl)piperidin-4-yl]propanamide], the viability at 48 h, 25 µM was 82.1%. To `CC(Cl)C(=O)N1Cc2cnn(C)c2C1` (centres unmarked) [7-K09, 2-chloro-1-{1-methyl-1H,4H,5H,6H-pyrrolo[3,4-c]pyrazol-5-yl}propan-1-one] belongs 87%. To `CC(Cl)C(=O)NC1CCc2nc(-c3cc(F)ccc3F)cn2C1` (centres unmarked) [7-K10, 2-chloro-N-[2-(2,5-difluorophenyl)-5H,6H,7H,8H-imidazo[1,2-a]pyridin-6-yl]propanamide] belongs 77.5%; to `CC(Cl)C(=O)N1CCN(C2=NS(=O)(=O)c3ccccc32)CC1` (centres unmarked) [7-K11, 3-[4-(2-chloropropanoyl)piperazin-1-yl]-1lambda6,2-benzothiazole-1,1-dione], 94.9%; to `CC(Cl)C(=O)N1CCC(c2nc(C3CC3)no2)(C(F)(F)F)C1` (centres unmarked) [7-K12, 2-chloro-1-[3-(3-cyclopropyl-1,2,4-oxadiazol-5-yl)-3-(trifluoromethyl)pyrrolidin-1-yl]propan-1-one], 83.5%. As for `CC(Cl)C(=O)NCC1CCCCN1C(=O)C(F)(F)F` (centres unmarked) [7-K13, 2-chloro-N-{[1-(2,2,2-trifluoroacetyl)piperidin-2-yl]methyl}propanamide], the figure is 83.8%. In the case of `CC(Cl)C(=O)NC1(C(=O)Nc2ccccc2)CC1` (centres unmarked) [7-K14, 1-(2-chloropropanamido)-N-phenylcyclopropane-1-carboxamide], the viability at 48 h, 25 µM was 52%. As for `CC(Cl)C(=O)NCc1ccccc1S(=O)(=O)N1CCOCC1` (centres unmarked) [7-K15, 2-chloro-N-{[2-(morpholine-4-sulfonyl)phenyl]methyl}propanamide], the figure is 86%; as for `CC(Cl)C(=O)N(C)C[C@@H]1C[C@H](F)CN1c1ccnc(N(C)C)n1` (stereo partly drawn) [7-K16, 2-chloro-N-{[(2S,4S)-1-[2-(dimethylamino)pyrimidin-4-yl]-4-fluoropyrrolidin-2-yl]methyl}-N-methylpropanamide], 79.5%. As for `CC(Cl)C(=O)N1CCn2c(nn(CC(=O)N(C)C)c2=O)C1` (centres unmarked) [7-K17, 2-[7-(2-chloropropanoyl)-3-oxo-2H,3H,5H,6H,7H,8H-[1,2,4]triazolo[4,3-a]pyrazin-2-yl]-N,N-dimethylacetamide], the figure is 83.1%.

Turning to `CC(Cl)C(=O)NCc1nnc(-c2ccncc2F)s1` (centres unmarked) [7-K18, 2-chloro-N-{[5-(3-fluoropyridin-4-yl)-1,3,4-thiadiazol-2-yl]methyl}propanamide], the viability at 48 h, 25 µM was 78.4%. On to `CC(Cl)C(=O)NC1CCCN(c2cnn(C)c2)C1` (centres unmarked) [7-K19, 2-chloro-N-[1-(1-methyl-1H-pyrazol-4-yl)piperidin-3-yl]propanamide], for which the viability at 48 h, 25 µM was found to be 75.7%. To `CC(Cl)C(=O)NC1(C(=O)N(C)C)CC(F)(F)C1` (centres unmarked) [7-K20, 1-(2-chloropropanamido)-3,3-difluoro-N,N-dimethylcyclobutane-1-carboxamide] belongs 83.7%. As for `CC(Cl)C(=O)NC(c1cc(Cl)ccc1Cl)C1CCOC1` (centres unmarked) [7-K21, 2-chloro-N-[(2,5-dichlorophenyl)(oxolan-3-yl)methyl]propanamide], the figure is 87.9%. As for `CC(Cl)C(=O)N1CCN(c2nc3ccccc3o2)C(C)C1` (centres unmarked) [7-K22, 1-[4-(1,3-benzoxazol-2-yl)-3-methylpiperazin-1-yl]-2-chloropropan-1-one], the figure is 76.1%. `O=C(CCl)NC1CCN(C(=O)COc2ccccc2)C1` (centres unmarked) [7-L03, 2-chloro-N-[1-(2-phenoxyacetyl)pyrrolidin-3-yl]acetamide]: the viability at 48 h, 25 µM came out at 0.757%. To `CN1c2ccccc2C(NC(=O)CCl)CS1(=O)=O` (centres unmarked) [7-L04, 2-chloro-N-(1-methyl-2,2-dioxo-3,4-dihydro-1H-2lambda6,1-benzothiazin-4-yl)acetamide] belongs 0.505%; to `CC(Cl)C(=O)NCCS(=O)(=O)Nc1ccccn1` (centres unmarked) [7-L05, 2-chloro-N-{2-[(pyridin-2-yl)sulfamoyl]ethyl}propanamide], 103%; to `O=C(CCl)NCC1CCN(C(=O)c2ccccc2)CC1` [7-L06, N-[(1-benzoylpiperidin-4-yl)methyl]-2-chloroacetamide], 0.868%. To `CC(Cl)C(=O)N1CCC(NS(=O)(=O)c2cccs2)CC1` (centres unmarked) [7-L07, N-[1-(2-chloropropanoyl)piperidin-4-yl]thiophene-2-sulfonamide] belongs 99.7%.

Take `CN(CC(=O)NC1CCC(O)CC1)C(=O)CCl` (centres unmarked) [7-L08, 2-chloro-N-{[(4-hydroxycyclohexyl)carbamoyl]methyl}-N-methylacetamide]: the viability at 48 h, 25 µM came out at 0.707%.

For `CC(Cl)C(=O)NCCc1ccc[nH]1` (centres unmarked) [7-L09, 2-chloro-N-[2-(1H-pyrrol-2-yl)ethyl]propanamide], the viability at 48 h, 25 µM turned out to be 91.9%. As for `CCC(c1cc(Cl)cc(Cl)c1)N(C)C(=O)CCl` (centres unmarked) [7-L10, 2-chloro-N-[1-(3,5-dichlorophenyl)propyl]-N-methylacetamide], the figure is 0.495%.

Source of the values: article PMC11995724, “Antibiotic target discovery by integrated phenotypic and activity-based profiling of electrophilic fragments” (Cell chemical biology, 2025).
